Test results: patent US11566007B2, “Ras inhibitors” (Revolution Medicines, Inc., priority 2019, dated 2023)

Tests used:
[1] = tested on: NCI-H358 cells (K-Ras G12C); assay: Potency assay: pERK in NCI-H358 cells; assay type: cell-based, human; conditions: Homo sapiens, NCI-H358; H358 KRAS G12C; read-out: pERK EC50
In short: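 4 h cpd, 37 °C; 10-pt 3-fold series, 10 mM DMSO top stock, duplicates. Readout pERK: AlphaLISA SureFire Ultra or In-Cell Western (IR-800CW secondary, DRAQ5 DNA stain). IC50, 4-PL fit vs log conc.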

[2] = molecular target: K-Ras G12C (Homo sapiens (Human), UniProt P01116+P62937, G12C); assay: Ras-Raf (BRAF RBD) disruption / FRET / MOA assay, KRAS G12C; assay type: biochemical; conditions: KRAS G12C; Ras-Raf disruption/FRET/MOA assay; read-out: IC50* KRAS G12C FRET data
Chain of K-Ras G12C (P01116-2 other isoform, or with tags, fused parts or gaps G12C): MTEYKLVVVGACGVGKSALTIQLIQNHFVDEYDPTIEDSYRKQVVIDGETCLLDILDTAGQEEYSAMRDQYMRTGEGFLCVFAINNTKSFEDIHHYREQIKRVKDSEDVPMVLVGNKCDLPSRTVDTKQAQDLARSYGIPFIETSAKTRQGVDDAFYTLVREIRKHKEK
Chain of K-Ras G12C (P62937 whole entry): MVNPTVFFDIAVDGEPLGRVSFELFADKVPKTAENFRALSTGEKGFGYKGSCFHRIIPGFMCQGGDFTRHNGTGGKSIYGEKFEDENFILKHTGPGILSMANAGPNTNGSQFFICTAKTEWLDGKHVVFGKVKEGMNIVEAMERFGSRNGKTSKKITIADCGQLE
In short: (§1)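 Compound-driven ternary complex of nucleotide-loaded Ras with cyclophilin A, disrupting BRAF RBD binding. 10-point 3-fold dilution from 30 μM final, 3 h at 25° C, then anti-His Eu-W1024 (10 nM) and anti-GST allophycocyanin (50 nM) for 1.5 h. IC50 from TR-FRET ratio decrease versus DMSO.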

[3] = tested on: NCI-H358 (K-Ras G12C); assay: CellTiter-Glo cell viability assay, NCI-H358; assay type: cell-based, human; conditions: Homo sapiens, NCI-H358, 120 h, NCI-H358, 5-day treatment; class symbols; read-out: Additional H358 Cell Viability assay data (K-Ras G12C, IC50)
In short: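 Viability measured by CellTiter-Glo luminescence on day 5 following direct addition of compound to plated cells. Values expressed as percent of mean DMSO signal; curves fitted with a four-parameter logistic model.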

[4] = molecular target: KRAS G12D (Homo sapiens (Human), UniProt P01116+P62937, G12D); assay: Ras-Raf (BRAF RBD) disruption / FRET / MOA assay, KRAS G12D; assay type: biochemical; conditions: Ras-Raf disruption/FRET/MOA assay; class symbols; read-out: KRAS G12D FRET data IC50
Chain of KRAS G12D (P01116-2 other isoform, or with tags, fused parts or gaps G12D): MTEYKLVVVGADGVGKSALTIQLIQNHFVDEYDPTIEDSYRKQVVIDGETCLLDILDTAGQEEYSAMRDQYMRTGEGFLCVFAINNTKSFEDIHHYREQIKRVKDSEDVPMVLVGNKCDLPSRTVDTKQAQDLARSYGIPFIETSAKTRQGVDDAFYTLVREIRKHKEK
Chain of KRAS G12D (P62937 whole entry): as the sequence (P62937 whole entry) above
In short: as §1

[5] = molecular target: KRAS G13D (Homo sapiens (Human), UniProt P01116+P62937, G13D); assay: Ras-Raf (BRAF RBD) disruption / FRET / MOA assay, KRAS G13D; assay type: biochemical; conditions: read-out: IC50* KRAS G13D FRET data
Chain of KRAS G13D (P01116-2 other isoform, or with tags, fused parts or gaps G13D): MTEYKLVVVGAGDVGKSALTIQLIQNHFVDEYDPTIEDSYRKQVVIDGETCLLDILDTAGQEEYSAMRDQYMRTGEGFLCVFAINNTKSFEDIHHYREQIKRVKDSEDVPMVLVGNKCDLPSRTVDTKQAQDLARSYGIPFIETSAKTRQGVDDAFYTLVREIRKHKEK
Chain of KRAS G13D (P62937 whole entry): as the sequence (P62937 whole entry) above
In short: as §1

[6] = molecular target: K-Ras G13C (Homo sapiens (Human), UniProt P01116+P62937, G13C); assay: Ras-Raf (BRAF RBD) disruption / FRET / MOA assay, KRAS G13C; assay type: biochemical; conditions: KRAS G13C; Ras-Raf disruption/FRET/MOA assay; read-out: IC50* KRAS G13C FRET data
Chain of K-Ras G13C (P01116-2 other isoform, or with tags, fused parts or gaps G13C): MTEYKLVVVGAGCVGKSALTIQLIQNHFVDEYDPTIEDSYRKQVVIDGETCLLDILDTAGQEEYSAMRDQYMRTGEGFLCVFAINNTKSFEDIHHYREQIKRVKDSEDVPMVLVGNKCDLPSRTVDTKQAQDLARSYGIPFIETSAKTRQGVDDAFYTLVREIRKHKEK
Chain of K-Ras G13C (P62937 whole entry): as the sequence (P62937 whole entry) above
In short: as §1

[7] = molecular target: NRAS G12C (Homo sapiens (Human), UniProt P01111+P62937, G12C); assay: Ras-Raf (BRAF RBD) disruption / FRET / MOA assay, NRAS G12C; assay type: biochemical; conditions: read-out: IC50* NRAS G12C FRET data
Chain of NRAS G12C (P01111 whole entry G12C): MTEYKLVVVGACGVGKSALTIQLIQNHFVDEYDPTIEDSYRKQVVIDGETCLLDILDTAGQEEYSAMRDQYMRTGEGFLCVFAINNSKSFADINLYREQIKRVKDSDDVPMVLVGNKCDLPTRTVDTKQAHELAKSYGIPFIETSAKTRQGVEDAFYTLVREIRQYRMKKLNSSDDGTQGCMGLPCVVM
Chain of NRAS G12C (P62937 whole entry): as the sequence (P62937 whole entry) above
In short: as §1

[8] = molecular target: KRAS G12S (Homo sapiens (Human), UniProt P01116+P62937, G12S); assay: Ras-Raf (BRAF RBD) disruption / FRET / MOA assay, KRAS G12S; assay type: biochemical; conditions: Ras-Raf disruption/FRET/MOA assay; class symbols; read-out: KRAS G12S FRET data IC50
Chain of KRAS G12S (P01116-2 other isoform, or with tags, fused parts or gaps G12S): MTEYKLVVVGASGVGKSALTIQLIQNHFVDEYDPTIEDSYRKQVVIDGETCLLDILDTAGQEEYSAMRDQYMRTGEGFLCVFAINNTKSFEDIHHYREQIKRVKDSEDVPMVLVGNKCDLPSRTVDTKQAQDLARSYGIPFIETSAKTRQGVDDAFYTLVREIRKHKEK
Chain of KRAS G12S (P62937 whole entry): as the sequence (P62937 whole entry) above
In short: as §1

[9] = molecular target: KRAS WT (Homo sapiens (Human), UniProt P01116+P62937); assay: Ras-Raf (BRAF RBD) disruption / FRET / MOA assay, KRAS WT; assay type: biochemical; conditions: read-out: IC50* KRAS WT FRET data
Chain of KRAS WT (P01116-2 other isoform, or with tags, fused parts or gaps): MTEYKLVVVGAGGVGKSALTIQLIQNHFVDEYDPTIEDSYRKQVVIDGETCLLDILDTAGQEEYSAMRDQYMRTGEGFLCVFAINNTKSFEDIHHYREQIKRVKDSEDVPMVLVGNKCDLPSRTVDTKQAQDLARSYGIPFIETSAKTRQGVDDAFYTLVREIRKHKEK
Chain of KRAS WT (P62937 whole entry): as the sequence (P62937 whole entry) above
In short: as §1

[10] = molecular target: KRAS G12V (Homo sapiens (Human), UniProt P01116+P62937, G12V); assay: Ras-Raf (BRAF RBD) disruption / FRET / MOA assay, KRAS G12V; assay type: biochemical; conditions: read-out: IC50* KRAS G12V FRET data
Chain of KRAS G12V (P01116-2 other isoform, or with tags, fused parts or gaps G12V): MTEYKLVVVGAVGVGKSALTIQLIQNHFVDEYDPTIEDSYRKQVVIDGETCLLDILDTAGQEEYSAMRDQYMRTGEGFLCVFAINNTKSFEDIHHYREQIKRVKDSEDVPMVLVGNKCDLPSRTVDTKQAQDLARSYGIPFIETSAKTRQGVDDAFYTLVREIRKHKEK
Chain of KRAS G12V (P62937 whole entry): as the sequence (P62937 whole entry) above
In short: as §1

Structure (SMILES)	EC50 [1]	IC50 [2]	IC50 [3]	IC50 [4]	IC50 [5]	IC50 [6]	IC50 [7]	IC50 [8]	IC50 [9]	IC50 [10]
CCn1c(-c2cccnc2[C@H](C)OC)c2c3cc(ccc31)-c1csc(n1)C[C@H](NC(=O)CCOC1CN(C(=O)C#CC(C)(C)N3CCC3)C1)C(=O)N1CCC[C@H](N1)C(=O)OCC(C)(C)C2 (atropisomer, axis not shown) [Example A477]	< 5000 nM	< 10 nM	10 to 100 nM	> 10000 nM	> 10000 nM	1000 to 10000 nM	10 to 100 nM	> 10000 nM	1000 to 10000 nM	1000 to 10000 nM
CCn1c(-c2cccnc2[C@H](C)OC)c2c3cc(ccc31)-c1cccc(c1)C[C@H](NC(=O)CCOC1CN(C(=O)C#CC(C)(C)N3CCC3)C1)C(=O)N1CCC[C@H](N1)C(=O)OCC(C)(C)C2 (atropisomer, axis not shown) [Example A478]	< 5000 nM	10 to 100 nM	10 to 100 nM	> 10000 nM	> 10000 nM	> 10000 nM	10 to 100 nM	> 10000 nM	> 10000 nM	> 10000 nM
CCn1c(-c2cccnc2[C@H](C)OC)c2c3cc(ccc31)-c1csc(n1)C[C@H](NC(=O)[C@H](C(C)C)N(C)C(=O)N1CCN(C(=O)C#CC(C)(C)N(C)C)CC1)C(=O)N1CCC[C@H](N1)C(=O)OCC(C)(C)C2 (atropisomer, axis not shown) [Example A479]	< 5000 nM	< 10 nM	< 10 nM	100 to 1000 nM	100 to 1000 nM	10 to 100 nM	< 10 nM	10 to 100 nM	10 to 100 nM	10 to 100 nM
CCn1c(-c2cccnc2[C@H](C)OC)c2c3cc(ccc31)-c1cccc(c1)C[C@H](NC(=O)[C@H](C(C)C)N(C)C(=O)[C@H]1CCN(C(=O)/C=C/C(F)F)C1)C(=O)N1CCC[C@H](N1)C(=O)OCC(C)(C)C2 (atropisomer, axis not shown) [Example A485]	< 5000 nM	10 to 100 nM	< 10 nM	> 10000 nM	1000 to 10000 nM	100 to 1000 nM	10 to 100 nM	1000 to 10000 nM	1000 to 10000 nM	1000 to 10000 nM
CC#CC(=O)N1CC[C@@H](C(=O)N(C)[C@H](C(=O)N[C@H]2Cc3cccc(c3)-c3ccc4c(c3)c(c(-c3cccnc3[C@H](C)OC)n4CC)CC(C)(C)COC(=O)[C@@H]3CCCN(N3)C2=O)C(C)C)C1 (atropisomer, axis not shown) [Example A487]	< 5000 nM	100 to 1000 nM	10 to 100 nM	1000 to 10000 nM	1000 to 10000 nM	100 to 1000 nM	100 to 1000 nM	1000 to 10000 nM	1000 to 10000 nM	1000 to 10000 nM
CCn1c(-c2cccnc2[C@H](C)OC)c2c3cc(ccc31)-c1csc(n1)C[C@H](NC(=O)[C@H](C)N(C)C(=O)[C@H]1CCN(C(=O)C#CC(C)(C)N3CCC3)C1)C(=O)N1CCC[C@H](N1)C(=O)OCC(C)(C)C2 (atropisomer, axis not shown) [Example A489]	< 5000 nM	10 to 100 nM	10 to 100 nM	> 10000 nM	1000 to 10000 nM	1000 to 10000 nM	10 to 100 nM	1000 to 10000 nM	1000 to 10000 nM	1000 to 10000 nM
C=CC(=O)NC1CN(C(=O)N(C)[C@H](C(=O)N[C@H]2Cc3nc(cs3)-c3ccc4c(c3)c(c(-c3cccnc3[C@H](C)OC)n4CC)CC(C)(C)COC(=O)[C@@H]3CCCN(N3)C2=O)C(C)C)C1 (atropisomer, axis not shown) [Example A490]	< 5000 nM	10 to 100 nM	10 to 100 nM	1000 to 10000 nM	100 to 1000 nM	100 to 1000 nM	10 to 100 nM	100 to 1000 nM	100 to 1000 nM	100 to 1000 nM
